{
  "source": "patent US20240391885A1",
  "about": "“FORMS OF LINERIXIBAT” (GLAXOSMITHKLINE INTELLECTUAL PROPERTY (NO. 2) LIMITED, priority 2020, published 2024)",
  "key": {"[1]": {"assay": "Solubility of linerixibat drug substance over pH 1.2-6.8 at 37±1° C. (Experiment 8a)", "type": "physicochemical", "experimental": "The solubility of linerixibat drug substance, in respect of Form I and Form III, was determined over the pH range of 1.2-6.8 at 37±1° C. Eight pH values within this range, including buffers at pH 1.2, 4.5 and 6.8 were evaluated. The therapeutic dose for linerixibat is 40 mg.\n• SGF=simulated gastric fluid • BR=Britton Robinson"}, "[2]": {"assay": "Dissolution of linerixibat tablets (USP <711> Apparatus II)", "type": "physicochemical", "details": "at both gastric and intestinal pH (pH 1.2 and pH 6.8)", "experimental": "The dissolution procedure developed for Linerixibat Tablets, 40 mg, is determined as directed in USP<711> and the method parameters are presented in Table G. The percentage of dissolved drug is currently determined by gradient reversed-phase HPLC.\nThe above dissolution method at pH 6.8 was applied to two batches of Linerixibat Tablets, 40 mg and the profiles obtained are shown in FIG. 24."}, "[3]": {"assay": "Systemic absorption of linerixibat", "details": "in vivo"}, "[4]": {"assay": "Solubility of drug substance samples in biorelevant media and sodium acetate buffer (Experiment 8b)", "type": "physicochemical", "excerpt": "Solubility data was obtained for drug substance samples of linerixibat Form I, linerixibat Form III, and additionally for a sample of Form I compressed to 100 MPa which therefore contained an amount of Form III, in order to replicate typical forces encountered during tablet manufacture.\nThe media used for the drug substance samples were biorelevant media likely to be experienced in the stomach and the intestine, namely Simulated Gastric Fluid (SGF) over an increasing pH range (1.6, 2.0 and 4.0) and Fasted State Simulated Intestinal Fluid (FaSSIF) at a pH of 6.5. Solubility data was also obtained in 50 mM sodium acetate buffer pH 4.5."}, "[5]": {"assay": "Miniaturised shake flask solubility in Britton-Robinson buffers and biorelevant media (Experiment 8c)", "type": "physicochemical", "details": "37° C., 1, 4 and 24 hours; FIG. 25", "experimental": "Solubility of Form I and Form III was also measured in Britton-Robinson buffers (pH 2-8), determined and compared using a standardised miniaturised shake flask method via an automated platform using a development HPLC method for quantification post centrifugation and filtration. Samples were run at 37° C. and performed as 2 replicate preparations for each pH condition and 4 replicate preparations for each biorelevant media condition at 1, 4 and 24 hours."}, "[6]": {"assay": "Storage stability of drug substance by HPLC, XRPD and SSNMR", "type": "physicochemical", "details": "1 month of storage at 50° C./ambient RH"}},
  "data": [
    {"smiles": "CCCC[C@]1(CC)CS(=O)(=O)c2cc(CNC(CC(=O)O)CC(=O)O)c(OC)cc2[C@@H](c2ccccc2)N1", "note": "[linerixibat, 3-({[(3R,5R)-3-butyl-3-ethyl-7-(methyloxy)-1,1-dioxido-5-phenyl-2,3,4,5-tetrahydro-1,4-benzothiazepin-8-yl]methyl}amino)pentanedioic acid]", "values": [
      {"measurement": "Solubility", "setting": "[1]; buffer, 37 °C, pH 1.2, simulated gastric fluid, thermodynamic from solid, pH 1.2 (gastric pH), read-out: solubility", "value": "> 1000", "unit": "µg/mL"},
      {"measurement": "Solubility", "setting": "[1]; buffer, 37 °C, pH 6.8, aqueous buffer, thermodynamic from solid, pH 6.8 (intestinal pH), read-out: solubility", "value": "> 1000", "unit": "µg/mL"},
      {"measurement": "time to full release", "setting": "[2]", "value": 5, "unit": "min"},
      {"measurement": "systemic absorption", "setting": "[3]", "value": "minimal systemic absorption"}
    ]},
    {"smiles": "CCCC[C@]1(CC)CS(=O)(=O)c2cc(CNC(CC(=O)O)CC(=O)O)c(OC)cc2[C@@H](c2ccccc2)N1", "note": "[Form III]", "values": [
      {"measurement": "solubility at 1 h", "setting": "[1]; Britton Robinson buffer, 37 °C, pH 3.7, aqueous buffer, thermodynamic from solid, nominal pH 3.7, BR buffer, 1-hr timepoint", "value": 104, "unit": "µg/mL"},
      {"measurement": "solubility at 4 h", "setting": "[1]; Britton Robinson buffer, 37 °C, pH 3.7, aqueous buffer, thermodynamic from solid, nominal pH 3.7, BR buffer, 4-hr timepoint", "value": 121, "unit": "µg/mL"},
      {"measurement": "solubility at 24 h", "setting": "[1]; Britton Robinson buffer, 37 °C, pH 3.7, aqueous buffer, thermodynamic from solid, nominal pH 3.7, BR buffer, 24-hr timepoint", "value": 129, "unit": "µg/mL"},
      {"measurement": "solubility classification", "setting": "[1]; all pHs in the physiological range except close to the solubility minimum (between pH 3.2 and pH 4.2), high solubility = above 0.16 mg/mL (40 mg in 250 mL)", "value": "highly soluble"},
      {"measurement": "Solubility", "setting": "[1]; nominal pH 1.2, SGF, 37° C., 1-hr timepoint", "value": ">1000", "unit": "µg/mL"},
      {"measurement": "Solubility", "setting": "[1]; nominal pH 1.2, SGF, 37° C., 4-hr timepoint", "value": ">1000", "unit": "µg/mL"},
      {"measurement": "Solubility", "setting": "[1]; nominal pH 1.2, SGF, 37° C., 24-hr timepoint", "value": ">1000", "unit": "µg/mL"},
      {"measurement": "Solubility", "setting": "[1]; nominal pH 3.0, BR buffer, 37° C., 1-hr timepoint", "value": 166, "unit": "µg/mL"},
      {"measurement": "Solubility", "setting": "[1]; nominal pH 3.0, BR buffer, 37° C., 4-hr timepoint", "value": 205, "unit": "µg/mL"},
      {"measurement": "Solubility", "setting": "[1]; nominal pH 3.0, BR buffer, 37° C., 24-hr timepoint", "value": 238, "unit": "µg/mL"},
      {"measurement": "Solubility", "setting": "[1]; nominal pH 3.5, BR buffer, 37° C., 1-hr timepoint", "value": 103, "unit": "µg/mL"},
      {"measurement": "Solubility", "setting": "[1]; nominal pH 3.5, BR buffer, 37° C., 4-hr timepoint", "value": 122, "unit": "µg/mL"},
      {"measurement": "Solubility", "setting": "[1]; nominal pH 3.5, BR buffer, 37° C., 24-hr timepoint", "value": 130, "unit": "µg/mL"},
      {"measurement": "Solubility", "setting": "[1]; nominal pH 4.0, BR buffer, 37° C., 1-hr timepoint", "value": 119, "unit": "µg/mL"},
      {"measurement": "Solubility", "setting": "[1]; nominal pH 4.0, BR buffer, 37° C., 4-hr timepoint", "value": 137, "unit": "µg/mL"},
      {"measurement": "Solubility", "setting": "[1]; nominal pH 4.0, BR buffer, 37° C., 24-hr timepoint", "value": 147, "unit": "µg/mL"},
      {"measurement": "Solubility", "setting": "[1]; nominal pH 4.5, Acetate buffer, 37° C., 1-hr timepoint", "value": 199, "unit": "µg/mL"},
      {"measurement": "Solubility", "setting": "[1]; nominal pH 4.5, Acetate buffer, 37° C., 4-hr timepoint", "value": 252, "unit": "µg/mL"},
      {"measurement": "Solubility", "setting": "[1]; nominal pH 4.5, Acetate buffer, 37° C., 24-hr timepoint", "value": 310, "unit": "µg/mL"},
      {"measurement": "Solubility", "setting": "[1]; nominal pH 5.0, BR buffer, 37° C., 1-hr timepoint", "value": 342, "unit": "µg/mL"},
      {"measurement": "Solubility", "setting": "[1]; nominal pH 5.0, BR buffer, 37° C., 4-hr timepoint", "value": 466, "unit": "µg/mL"},
      {"measurement": "Solubility", "setting": "[1]; nominal pH 5.0, BR buffer, 37° C., 24-hr timepoint", "value": 620, "unit": "µg/mL"},
      {"measurement": "Solubility", "setting": "[1]; nominal pH 6.8, Phosphate buffer, 37° C., 1-hr timepoint", "value": ">1000", "unit": "µg/mL"},
      {"measurement": "Solubility", "setting": "[1]; nominal pH 6.8, Phosphate buffer, 37° C., 4-hr timepoint", "value": ">1000", "unit": "µg/mL"},
      {"measurement": "Solubility", "setting": "[1]; nominal pH 6.8, Phosphate buffer, 37° C., 24-hr timepoint", "value": ">1000", "unit": "µg/mL"},
      {"measurement": "difference in solubility between Form I and Form III", "setting": "[1]; pH 1.2-6.8, 37±1° C.", "value": "no significant difference"},
      {"measurement": "Solubility", "setting": "[4]; 50 mM Sodium Acetate Buffer pH 4.5, 1 Hour, listed as Form 3", "value": 290, "unit": "µg/mL"},
      {"measurement": "Solubility", "setting": "[4]; 50 mM Sodium Acetate Buffer pH 4.5, 4 Hours, listed as Form 3", "value": 290, "unit": "µg/mL"},
      {"measurement": "Solubility", "setting": "[4]; 50 mM Sodium Acetate Buffer pH 4.5, 24 Hours, listed as Form 3", "value": 280, "unit": "µg/mL"},
      {"measurement": "Solubility", "setting": "[4]; FaSSIF pH 6.5, 1 Hour, listed as Form 3", "value": 5200, "unit": "µg/mL"},
      {"measurement": "Solubility", "setting": "[4]; FaSSIF pH 6.5, 4 Hours, listed as Form 3", "value": 5310, "unit": "µg/mL"},
      {"measurement": "Solubility", "setting": "[4]; FaSSIF pH 6.5, 24 Hours, listed as Form 3", "value": 5320, "unit": "µg/mL"},
      {"measurement": "Solubility", "setting": "[4]; SGF pH 1.6, 1 Hour, listed as Form 3", "value": 7540, "unit": "µg/mL"},
      {"measurement": "Solubility", "setting": "[4]; SGF pH 1.6, 4 Hours, listed as Form 3", "value": 7900, "unit": "µg/mL"},
      {"measurement": "Solubility", "setting": "[4]; SGF pH 1.6, 24 Hours, listed as Form 3", "value": 8620, "unit": "µg/mL"},
      {"measurement": "Solubility", "setting": "[4]; SGF pH 2.0, 1 Hour", "value": 1490, "unit": "µg/mL"},
      {"measurement": "Solubility", "setting": "[4]; SGF pH 2.0, 4 Hours, listed as Form 3", "value": 1580, "unit": "µg/mL"},
      {"measurement": "Solubility", "setting": "[4]; SGF pH 2.0, 24 Hours, listed as Form 3", "value": 1700, "unit": "µg/mL"},
      {"measurement": "Solubility", "setting": "[4]; SGF pH 4.0, 1 Hour, listed as Form 3", "value": 160, "unit": "µg/mL"},
      {"measurement": "Solubility", "setting": "[4]; SGF pH 4.0, 4 Hours, listed as Form 3", "value": 170, "unit": "µg/mL"},
      {"measurement": "Solubility", "setting": "[4]; SGF pH 4.0, 24 Hours, listed as Form 3", "value": 190, "unit": "µg/mL"},
      {"measurement": "solubility comparison of the forms", "setting": "[4]; all investigated physiologically relevant pH values (1.6 to 6.5)", "value": "Forms I and III have very similar solubilities at all investigated physiologically"},
      {"measurement": "solubility comparison in biorelevant media", "setting": "[5]", "value": "very similar"},
      {"measurement": "change of form or drug-related impurity content", "setting": "[6]", "value": "Laboratory isolated Form III drug substance demonstrated no change in form"}
    ]}
  ]
}
